Measurements taken from paper PMC8934569 (Cancer chemotherapy and pharmacology, 2021).

Columns and labels:
[1] = tested on: recombinant cytochrome P450s; conditions: cited from earlier work
[2] = Veliparib plasma pharmacokinetics; assay type: in vivo, human
[3] = tested on: γH2AX in circulating tumor cells (CTCs); assay: Total CTCs and γH2AX-positive CTCs; assay type: in vivo, human; conditions: veliparib and AC
metastatic breast cancer = conditions: veliparib with oral cyclophosphamide; cited from earlier work
metastatic malignancy = assay: Tumor response by RECIST version 1.1; assay type: in vivo, human
γH2AX in tumor = assay: γH2AX nuclear area positive score; assay type: in vivo, human; conditions: veliparib and AC, paired biopsy, baseline <5%
[4] = tested on: MX-1 BRCA1 deficient breast cancer model; conditions: cyclophosphamide 12.5 mg/kg/day on days 20, 14, and 27 and veliparib 25 mg/kg/day; cited from earlier work
[5] = Drug-related adverse events graded by NCI CTCAE version 4.0; assay type: in vivo, human
[6] = Group 1 N=31: veliparib Days 1-4 + cyclophosphamide Day 3, all tumor types
[7] = Group 2 N=22: veliparib Days 1-4 + AC Day 3, all tumor types
[8] = Group 3 N=14: veliparib 100 mg every 12 h Days 1-7 + AC Day 1
[9] = Group 4 N=13: veliparib 100 mg every 12 h Days 1-14 + AC Day 1
[10] = Group 1 N=31: veliparib Days 1-4 + cyclophosphamide Day 3
[11] = Group 2 N=22: veliparib Days 1-4 + AC Day 3

## C[C@]1(c2nc3c(C(N)=O)cccc3[nH]2)CCCN1 [veliparib, 2-[(R)-2-methylpyrrolidin-2-yl]-1H-benzimidazole-4-carboxamide]
[1]; known when the study was developed, no reference given
  P450 involvement in incubations with recombinant cytochrome P450s: potential involvement of CYP1A1, 2D6, 2C19, and 3A4
[1]; only partially by CYP1A2, 2C19 and 3A4
  Metabolizing enzymes: primarily metabolized by CYP2D6
[2]; Groups 1 and 2
  AUC0-7 on C1D3 (with combination therapy) compared to C1D1 (alone): significantly higher
  Cmax on C1D3 (with combination therapy) compared to C1D1 (alone): comparable
[2]; veliparib administered alone, 50 to 200 mg dose range, C1D1
  Dose proportionality of Cmax and AUC0-7: approximately dose-proportional increases
Phase I dose escalation; Group 2: Days 1-4 with AC 60/600 mg/m^2 Day 3 every 21 days
  MTD or recommended phase II dose of veliparib with AC: 100 mg every 12 h
Phase I dose escalation; Group 3 Level 1b: veliparib 100 mg every 12 h Days 1-7 + cyclophosphamide 600 mg/m^2 + doxorubicin 60 mg/m^2 Day 1, n=14
  No. of Pts with DLTS: 0
Phase I dose escalation; Group 4 Level 1b: veliparib 100 mg every 12 h Days 1-14 + cyclophosphamide 600 mg/m^2 + doxorubicin 60 mg/m^2 Day 1, n=13
  No. of Pts with DLTS: 0
[3]; groups 3 and 4 combined, p =0.0006
  Change in percentage of γH2AX-positive CTCs from Day 1 to Day 14: significant increase
[3]; groups 3 and 4 combined, p =0.0007
  Change in CTCs from Day 1 to Day 7: significant decrease
[3]; groups 3 and 4 combined, p =0.0009
  Change in CTCs from Day 1 to Day 14: significant decrease
[3]; groups 3 and 4 combined, p =0.016
  Change in percentage of γH2AX-positive CTCs from Day 1 to Day 7: significant increase
[3]; groups 3 and 4, cycle 1
  Patients in whom γH2AX-positive CTCs ≥ 50% persisted to day 14: 10 patients
Metastatic breast cancer
  Clinical benefit: 19.2%
Metastatic malignancy; Group 1 (veliparib + cyclophosphamide)
  Overall clinical benefit rate (CBR): 13%
Metastatic malignancy; [6]
  Complete response (best response achieved): 0 (0) n (%)
  Stable disease ≥3 months (best response achieved): 3 (10) n (%)
Metastatic malignancy; [7]
  Complete response (best response achieved): 0 (0) n (%)
  Partial response (best response achieved): 4 (18) n (%)
  Stable disease ≥3 months (best response achieved): 5 (23) n (%)
Metastatic malignancy; [8]
  Complete response (best response achieved): 0 (0) n (%)
  Partial response (best response achieved): 2 (14) n (%)
  Stable disease ≥3 months (best response achieved): 4 (29) n (%)
Metastatic malignancy; [9]
  Complete response (best response achieved): 0 (0) n (%)
  Partial response (best response achieved): 5 (38) n (%)
  Stable disease ≥3 months (best response achieved): 1 (8) n (%)
Metastatic malignancy; V and AC treated groups (11/49)
  Objective response: 22%
Metastatic malignancy; all groups (25/80)
  Overall clinical benefit rate: 31%
Metastatic malignancy; among the 59 metastatic breast cancer patients treated
  Patients with a BRCA1/2 mutation noted to have PRs: 5 patients
γH2AX in tumor; patient with partial response
  γH2AX nuclear area positive score (%NAP) after treatment: 3.23%
γH2AX in tumor; patient with progressive disease
  γH2AX nuclear area positive score (%NAP) after treatment: 10.96%
γH2AX in tumor; patient with stable disease
  γH2AX nuclear area positive score (%NAP) after treatment: 5.2%
γH2AX in tumor; response could not be assessed
  γH2AX nuclear area positive score (%NAP) after treatment: 4.5%
[4]
  Tumor effect of the combination: tumor regression
[5]; [10]
  Anemia, All Grades: 8 (26) n (%)
  Anemia, Gr 3: 2 (6) n (%)
  Anemia, Gr 4: 0 (0) n (%)
  Anorexia, All Grades: 0 (0) n (%)
  Anorexia, Gr 3: 0 (0) n (%)
  Anorexia, Gr 4: 0 (0) n (%)
  Dehydration, All Grades: 0 (0) n (%)
  Dehydration, Gr 3: 0 (0) n (%)
  Dehydration, Gr 4: 0 (0) n (%)
  Fatigue, All Grades: 12 (39) n (%)
  Fatigue, Gr 3: 1 (3) n (%)
  Fatigue, Gr 4: 0 (0) n (%)
  Febrile neutropenia, All Grades: 1 (3) n (%)
  Febrile neutropenia, Gr 3: 1 (3) n (%)
  Febrile neutropenia, Gr 4: 0 (0) n (%)
  Hyponatremia, All Grades: 0 (0) n (%)
  Hyponatremia, Gr 3: 0 (0) n (%)
  Hyponatremia, Gr 4: 0 (0) n (%)
  Hypophosphatemia, All Grades: 1 (3) n (%)
  Hypophosphatemia, Gr 3: 1 (3) n (%)
  Hypophosphatemia, Gr 4: 0 (0) n (%)
  Hypotension, All Grades: 1 (3) n (%)
  Hypotension, Gr 3: 1 (3) n (%)
  Hypotension, Gr 4: 0 (0) n (%)
  Lymphocyte count decreased, All Grades: 8 (26) n (%)
  Lymphocyte count decreased, Gr 3: 4 (13) n (%)
  Lymphocyte count decreased, Gr 4: 2 (6) n (%)
  Nausea, All Grades: 5 (16) n (%)
  Nausea, Gr 3: 0 (0) n (%)
  Nausea, Gr 4: 0 (0) n (%)
  Neutrophil count decreased, All Grades: 11 (35) n (%)
  Neutrophil count decreased, Gr 3: 4 (13) n (%)
  Neutrophil count decreased, Gr 4: 3 (10) n (%)
  Platelet count decreased, All Grades: 5 (16) n (%)
  Platelet count decreased, Gr 3: 1 (3) n (%)
  Platelet count decreased, Gr 4: 1 (3) n (%)
  Sepsis, All Grades: 0 (0) n (%)
  Sepsis, Gr 3: 0 (0) n (%)
  Sepsis, Gr 4: 0 (0) n (%)
  Vomiting, All Grades: 5 (16) n (%)
  Vomiting, Gr 3: 0 (0) n (%)
  Vomiting, Gr 4: 0 (0) n (%)
  White blood cell decreased, All Grades: 9 (29) n (%)
  White blood cell decreased, Gr 3: 6 (19) n (%)
  White blood cell decreased, Gr 4: 1 (3) n (%)
[5]; [11]
  Anemia, All Grades: 16 (73) n (%)
  Anemia, Gr 3: 4 (18) n (%)
  Anemia, Gr 4: 0 (0) n (%)
  Anorexia, All Grades: 5 (23) n (%)
  Anorexia, Gr 3: 0 (0) n (%)
